Reference: patent US20030108523A1, “Cancer treatment system” (priority 2001, published 2003)

What was measured:
NF-κB = details: U937 cells; cited from earlier work
Mesothelioma cells = assay: Cell-growth inhibition assay (MTT colorimetric assay); format: cell-based, human
Experimental: Various mesothelioma cell lines were established from specimens obtained from pleural effusions of patients with established pleural malignant mesothelioma. Cell cultures were performed according to standard methods. Briefly, pleural effusions were centrifuged and the cell pellets were transferred into 25 cm^2 tissue culture flasks. The medium consisted of RPMI 1640 supplemented with 10% fetal bovine serum, 2 mM glutamine, 10 mM HEPES buffer, 50 U/ml penicillin, and 50 μg/ml streptomycin. Cultures were maintained in humidified atmosphere of 5% CO2 at 37° C. and examined daily. When cells were confluent, a trypsin-EDTA mixture in PBS was used to detach the cells, and the cultures were used between passages 5 and 20.
Mesothelioma cells were counted and dispensed into eight, 96-well tissue-culture plates (Costar, Cambridge, Mass.) at a concentration of 2,000 cells/well in 100 μl of culture medium. […] Culture plates were then incubated for different times between 0 and 168 hours and cell proliferation was measured every 24 hours. […]
Cell proliferation was determined by a colorimetric assay using MTT [3(4,5-dimethylthiazol-2yl)2,5-diphenyltetrazolium bromide], a tetrazolium salt which is reduced to a colored formazan product by reducing enzymes present only in metabolically active cells. (See Alley et al., “Feasibility of drug screening with panel of human tumor cell lines using a microculture tetrazolium assay” Cancer Res. 48: 589-601, 1988.) Thus, metabolically active cells such as cells undergoing division will produce more formazan, which can be detected by a spectrophotometer.
Briefly, twenty-five μls of MTT solution were added to culture wells containing cells as described above. […] Absorption of each well was measured using a spectrophotometer at 540 nm. The effect of α-MSH on cell proliferation was determined as percent OD difference in α-MSH treated wells relative to control wells. […]

[1] = in vivo; cited from earlier work

Row | Substance | NF-κB activation induced by TNF-α, endotoxin, ceramide and okadaic acid (NF-κB) | Dose dependence of the inhibitory effect on mesothelioma cell proliferation (Mesothelioma cells; 10^-6 to 10^-4 M, FIG. 2) | Concentration at which the inhibitory effect was most significant and consistent (Mesothelioma cells; FIG. 2) | Cell proliferation of treated versus control wells, early intervals (Mesothelioma cells; intervals between 24 and 72 h) | Potency in reducing fever relative to the parent peptide α-MSH [1]
1 | SYSMEHFRWGKPV (listed as Homo sapiens) [α-MSH, thirteen amino-acid peptide produced by post-translational processing of propiomelanocortin] | downregulates NF-κB activation | dose-dependent | 10^−4 M | no difference in cell proliferation | –
2 | [Nle4-D-Phe7]-α-MSH | – | – | – | – | approximately ten times more potent
